In the supplement of paper PMC10307832:

Key:
Experiment in all cases: relative viability (nuclei count vs DMSO), 5 days (fraction); higher = more cells survive
[1] = compound: CCC1=CN=CN=C1N2CCN(CC2)CC3=NC4=C(N3)C=C(C=C4)C(F)(F)F + NC(=O)Nc1cc(-c2cccc(F)c2)sc1C(=O)N[C@H]1CCCNC1 [AZD7762] (partner 0.2 µM)
In short: (§1)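 Cells from lung cancer lines were seeded into 1536-well plates and, one day later, dosed by pin tool. Treatments were either a single drug or a fixed dose of an anchor drug with five library-drug doses (not always all listed) in √10 steps. After 5 days, nuclei were stained in a one-step fixation (final 0.05% Triton X-100, 1% formaldehyde, 1 ug/ml Hoechst) and counted on 4× images, and relative viability is the treated-to-vehicle nuclei ratio, as the median of duplicate plates.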

[2] = compound: CCC1=CN=CN=C1N2CCN(CC2)CC3=NC4=C(N3)C=C(C=C4)C(F)(F)F + O=C(CCCCCCC(=O)Nc1ccccc1)NO [Vorinostat] (partner 1 µM)
In short: as §1

[3] = compound: CCn1c(-c2nonc2N)nc2cnc(Oc3cccc(NC(=O)c4ccc(OCCN5CCOCC5)cc4)c3)cc21 + Cc1nc(NC(=O)N2CCC[C@H]2C(N)=O)sc1-c1ccnc(C(C)(C)C(F)(F)F)c1 [Alpelisib] (partner 2 µM)
In short: as §1

[4] = compound: CCn1c(-c2nonc2N)nc2cnc(Oc3cccc(NC(=O)c4ccc(OCCN5CCOCC5)cc4)c3)cc21 + CC(C)C[C@H](NC(=O)[C@H](Cc1ccccc1)NC(=O)c1cnccn1)B(O)O [Bortezomib] (partner 0.002 µM)
In short: as §1

With EKVX the relative viability ([1]; first compound 0.04 µM) was 0.724, the relative viability ([1]; first compound 0.1265 µM) was 0.712 and the relative viability ([1]; first compound 0.4 µM) was 0.756. For the same cell line, the relative viability ([1]; first compound 1.265 µM) was 0.646, the relative viability ([1]; first compound 4 µM) was 0.777 and the relative viability ([2]; first compound 0.04 µM) was 0.767. For the same cell line, the relative viability ([2]; first compound 0.1265 µM) was 0.678, the relative viability ([2]; first compound 0.4 µM) was 0.739 and the relative viability ([2]; first compound 1.265 µM) was 0.575. The relative viability ([2]; first compound 4 µM) was 0.659, the relative viability ([3]; first compound 0.04 µM) was 1.16 and the relative viability ([3]; first compound 0.1265 µM) was 0.83. For the same cell line, the relative viability ([3]; first compound 0.4 µM) was 0.883, the relative viability ([3]; first compound 1.265 µM) was 0.764 and the relative viability ([3]; first compound 4 µM) was 0.837. For the same cell line, the relative viability ([4]; first compound 0.04 µM) was 1.22, the relative viability ([4]; first compound 0.1265 µM) was 1.05 and the relative viability ([4]; first compound 0.4 µM) was 0.902. For the same cell line, the relative viability ([4]; first compound 1.265 µM) was 0.932 and the relative viability ([4]; first compound 4 µM) was 1.02.

For EMC-BAC-2, the relative viability ([1]; first compound 0.04 µM) was 1.1, the relative viability ([1]; first compound 0.1265 µM) was 1.05 and the relative viability ([1]; first compound 0.4 µM) was 1.12. It also gave a relative viability ([1]; first compound 1.265 µM) of 1.05, a relative viability ([1]; first compound 4 µM) of 1.21 and a relative viability ([2]; first compound 0.1265 µM) of 0.415. For the same cell line, the relative viability ([2]; first compound 0.4 µM) was 0.422, the relative viability ([2]; first compound 1.265 µM) was 0.386 and the relative viability ([2]; first compound 4 µM) was 0.484. The relative viability ([3]; first compound 0.04 µM) was 0.872, the relative viability ([3]; first compound 0.1265 µM) was 0.732 and the relative viability ([3]; first compound 0.4 µM) was 0.8. For the same cell line, the relative viability ([3]; first compound 1.265 µM) was 0.729, the relative viability ([3]; first compound 4 µM) was 0.75 and the relative viability ([4]; first compound 0.04 µM) was 1.18. For the same cell line, the relative viability ([4]; first compound 0.1265 µM) was 0.967, the relative viability ([4]; first compound 0.4 µM) was 0.792 and the relative viability ([4]; first compound 1.265 µM) was 0.731. The relative viability ([4]; first compound 4 µM) was 0.442.

Cell Line EPLC-272H has a relative viability ([1]; first compound 0.04 µM) of 0.172, a relative viability ([1]; first compound 0.1265 µM) of 0.209 and a relative viability ([1]; first compound 0.4 µM) of 0.207. The relative viability ([1]; first compound 1.265 µM) was 0.245, the relative viability ([1]; first compound 4 µM) was 0.262 and the relative viability ([2]; first compound 0.04 µM) was 0.311. It also gave a relative viability ([2]; first compound 0.1265 µM) of 0.598, a relative viability ([2]; first compound 0.4 µM) of 0.373 and a relative viability ([2]; first compound 1.265 µM) of 0.392. The relative viability ([2]; first compound 4 µM) was 0.351, the relative viability ([3]; first compound 0.04 µM) was 1.11 and the relative viability ([3]; first compound 0.1265 µM) was 0.963. For the same cell line, the relative viability ([3]; first compound 0.4 µM) was 0.892, the relative viability ([3]; first compound 1.265 µM) was 0.933 and the relative viability ([3]; first compound 4 µM) was 0.973. It also gave a relative viability ([4]; first compound 0.04 µM) of 1.02, a relative viability ([4]; first compound 0.1265 µM) of 1.21 and a relative viability ([4]; first compound 0.4 µM) of 0.841. The relative viability ([4]; first compound 1.265 µM) was 0.645 and the relative viability ([4]; first compound 4 µM) was 0.783.

With H3255 the relative viability ([1]; first compound 0.04 µM) was 0.86, the relative viability ([1]; first compound 0.1265 µM) was 0.852 and the relative viability ([1]; first compound 0.4 µM) was 0.824. It also gave a relative viability ([1]; first compound 1.265 µM) of 0.931, a relative viability ([1]; first compound 4 µM) of 0.874 and a relative viability ([2]; first compound 0.04 µM) of 0.946. For the same cell line, the relative viability ([2]; first compound 0.1265 µM) was 0.576, the relative viability ([2]; first compound 0.4 µM) was 0.929 and the relative viability ([2]; first compound 1.265 µM) was 0.762. The relative viability ([2]; first compound 4 µM) was 0.754, the relative viability ([3]; first compound 0.04 µM) was 1.08 and the relative viability ([3]; first compound 0.1265 µM) was 0.622. For the same cell line, the relative viability ([3]; first compound 0.4 µM) was 0.622, the relative viability ([3]; first compound 1.265 µM) was 0.583 and the relative viability ([3]; first compound 4 µM) was 0.594. The relative viability ([4]; first compound 0.04 µM) was 1.03, the relative viability ([4]; first compound 0.1265 µM) was 0.9 and the relative viability ([4]; first compound 0.4 µM) was 0.728. The relative viability ([4]; first compound 1.265 µM) was 0.526 and the relative viability ([4]; first compound 4 µM) was 0.531.

Work on HARA yielded a relative viability ([1]; first compound 0.04 µM) of 0.484, a relative viability ([1]; first compound 0.1265 µM) of 0.263 and a relative viability ([1]; first compound 0.4 µM) of 0.339. For the same cell line, the relative viability ([1]; first compound 1.265 µM) was 0.292, the relative viability ([1]; first compound 4 µM) was 0.436 and the relative viability ([2]; first compound 0.04 µM) was 0.542. For the same cell line, the relative viability ([2]; first compound 0.1265 µM) was 0.492, the relative viability ([2]; first compound 0.4 µM) was 0.57 and the relative viability ([2]; first compound 1.265 µM) was 0.556. The relative viability ([2]; first compound 4 µM) was 0.466, the relative viability ([3]; first compound 0.04 µM) was 0.831 and the relative viability ([3]; first compound 0.1265 µM) was 0.797. The relative viability ([3]; first compound 0.4 µM) was 0.756, the relative viability ([3]; first compound 1.265 µM) was 0.395 and the relative viability ([3]; first compound 4 µM) was 0.485. For the same cell line, the relative viability ([4]; first compound 0.04 µM) was 1.19, the relative viability ([4]; first compound 0.1265 µM) was 0.943 and the relative viability ([4]; first compound 0.4 µM) was 0.36. The relative viability ([4]; first compound 1.265 µM) was 0.176 and the relative viability ([4]; first compound 4 µM) was 0.145.

HCC-15 was tested, and the relative viability ([1]; first compound 0.04 µM) was 1.3, the relative viability ([1]; first compound 0.1265 µM) was 1.11 and the relative viability ([1]; first compound 0.4 µM) was 1.1. The relative viability ([1]; first compound 1.265 µM) was 1.32, the relative viability ([1]; first compound 4 µM) was 1.32 and the relative viability ([2]; first compound 0.04 µM) was 0.864. It also gave a relative viability ([2]; first compound 0.1265 µM) of 0.831, a relative viability ([2]; first compound 0.4 µM) of 0.789 and a relative viability ([2]; first compound 1.265 µM) of 0.76. The relative viability ([2]; first compound 4 µM) was 0.82, the relative viability ([3]; first compound 0.04 µM) was 1.03 and the relative viability ([3]; first compound 0.1265 µM) was 0.831. For the same cell line, the relative viability ([3]; first compound 0.4 µM) was 0.953, the relative viability ([3]; first compound 1.265 µM) was 0.867 and the relative viability ([3]; first compound 4 µM) was 0.845. It also gave a relative viability ([4]; first compound 0.04 µM) of 1.2, a relative viability ([4]; first compound 0.1265 µM) of 0.992 and a relative viability ([4]; first compound 0.4 µM) of 0.882. For the same cell line, the relative viability ([4]; first compound 1.265 µM) was 0.757 and the relative viability ([4]; first compound 4 µM) was 0.913.

HCC-44 showed a relative viability ([1]; first compound 0.04 µM) of 1.04, a relative viability ([1]; first compound 0.1265 µM) of 0.946 and a relative viability ([1]; first compound 0.4 µM) of 0.977. The relative viability ([1]; first compound 1.265 µM) was 1.13, the relative viability ([1]; first compound 4 µM) was 0.986 and the relative viability ([2]; first compound 0.04 µM) was 1.01. It also gave a relative viability ([2]; first compound 0.1265 µM) of 1.06, a relative viability ([2]; first compound 0.4 µM) of 1.09 and a relative viability ([2]; first compound 1.265 µM) of 1.17. The relative viability ([2]; first compound 4 µM) was 1.02, the relative viability ([3]; first compound 0.04 µM) was 0.816 and the relative viability ([3]; first compound 0.1265 µM) was 0.896. It also gave a relative viability ([3]; first compound 0.4 µM) of 0.659, a relative viability ([3]; first compound 1.265 µM) of 0.456 and a relative viability ([3]; first compound 4 µM) of 0.344. The relative viability ([4]; first compound 0.04 µM) was 0.889, the relative viability ([4]; first compound 0.1265 µM) was 0.902 and the relative viability ([4]; first compound 0.4 µM) was 0.56. For the same cell line, the relative viability ([4]; first compound 1.265 µM) was 0.305 and the relative viability ([4]; first compound 4 µM) was 0.248.

Work on HCC-78 yielded a relative viability ([1]; first compound 0.04 µM) of 0.564, a relative viability ([1]; first compound 0.1265 µM) of 0.559 and a relative viability ([1]; first compound 0.4 µM) of 0.668. The relative viability ([1]; first compound 1.265 µM) was 0.525, the relative viability ([1]; first compound 4 µM) was 0.631 and the relative viability ([2]; first compound 0.04 µM) was 0.528. For the same cell line, the relative viability ([2]; first compound 0.1265 µM) was 0.405, the relative viability ([2]; first compound 0.4 µM) was 0.47 and the relative viability ([2]; first compound 1.265 µM) was 0.4. It also gave a relative viability ([2]; first compound 4 µM) of 0.409, a relative viability ([3]; first compound 0.04 µM) of 0.494 and a relative viability ([3]; first compound 0.1265 µM) of 0.336. It also gave a relative viability ([3]; first compound 0.4 µM) of 0.429, a relative viability ([3]; first compound 1.265 µM) of 0.487 and a relative viability ([3]; first compound 4 µM) of 0.455. It also gave a relative viability ([4]; first compound 0.04 µM) of 0.465, a relative viability ([4]; first compound 0.1265 µM) of 0.53 and a relative viability ([4]; first compound 0.4 µM) of 0.494. It also gave a relative viability ([4]; first compound 1.265 µM) of 0.605 and a relative viability ([4]; first compound 4 µM) of 0.705.
